pIC50: −log10 of the molar value.
System: 192522-019-R-J2-PDC complex tumor spheroid viability
Assay: Anticancer human tumor 192522-019-R-J2-PDC patient-derived colon adenocarcinoma cell line growth inhibition [POLQ]
Conditions: for pIC50: curve of first compound; for viability, T/C: stronger effect = lower value
How it was run: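 Patient-derived tumour cells were co-cultured with HUVEC and mesenchymal stem cells as multicellular spheroids at 37 °C. They were treated with POLQ inhibitors (novobiocin, ART-558, RP6685) alone or combined with other agents. Top concentrations were at or near clinical Cmax (otherwise 10 microM; SN-38 at 1 microM), decreasing in half-log steps.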

[1] = second compound 0.0316 µM, first compound 0.0316 µM
[2] = second compound 0.0316 µM, first compound 0.1 µM
[3] = second compound 0.0316 µM, first compound 0.316 µM
[4] = second compound 0.0316 µM, first compound 1 µM
[5] = second compound 0.0316 µM, first compound 3.16 µM
[6] = second compound 0.0316 µM, first compound 10 µM
[7] = second compound 0.1 µM, first compound 0.0316 µM
[8] = second compound 0.1 µM, first compound 0.1 µM
[9] = second compound 0.1 µM, first compound 0.316 µM
[10] = second compound 0.1 µM, first compound 1 µM
[11] = second compound 0.1 µM, first compound 3.16 µM
[12] = second compound 0.1 µM, first compound 10 µM
[13] = second compound 0.316 µM, first compound 0.0316 µM
[14] = second compound 0.316 µM, first compound 0.1 µM
[15] = second compound 0.316 µM, first compound 0.316 µM
[16] = second compound 0.316 µM, first compound 1 µM
[17] = second compound 0.316 µM, first compound 3.16 µM
[18] = second compound 0.316 µM, first compound 10 µM
[19] = second compound 1 µM, first compound 0.0316 µM
[20] = second compound 1 µM, first compound 0.1 µM
[21] = second compound 1 µM, first compound 0.316 µM
[22] = second compound 1 µM, first compound 1 µM
[23] = second compound 1 µM, first compound 3.16 µM
[24] = second compound 1 µM, first compound 10 µM
[25] = second compound 3.16 µM, first compound 0.0316 µM
[26] = second compound 3.16 µM, first compound 0.1 µM
[27] = second compound 3.16 µM, first compound 0.316 µM
[28] = second compound 3.16 µM, first compound 1 µM
[29] = second compound 3.16 µM, first compound 3.16 µM
[30] = second compound 3.16 µM, first compound 10 µM
[31] = second compound 10 µM, first compound 0.0316 µM
[32] = second compound 10 µM, first compound 0.1 µM
[33] = second compound 10 µM, first compound 0.316 µM
[34] = second compound 10 µM, first compound 1 µM
[35] = second compound 10 µM, first compound 3.16 µM
[36] = second compound 10 µM, first compound 10 µM
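Also: spheroids exposed to drugs for seven days before reading.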
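For viability, T/C in this document: 100% = DMSO vehicle control viability in luminescence.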

For `CCc1cc2c(N3CCc4c(cc(Cn5ccnc5)cc4-c4cn(C)nc4C(F)(F)F)C3=O)ccnc2c(OC)n1` + Nc1ccc(C#CCN(C(=O)Cc2ncc(C(F)(F)F)cc2C(F)(F)F)c2ccc(F)cc2)nn1, the pIC50 (second compound 0.0316 µM) was < 5.00, the pIC50 (second compound 0.1 µM) was < 5.00 and the pIC50 (second compound 0.316 µM) was < 5.00. The pIC50 (second compound 1 µM) was < 5.00, the pIC50 (second compound 3.16 µM) was < 5.00 and the pIC50 (second compound 10 µM) was < 5.00. For the same compound, the viability, T/C [1] was 109%, the viability, T/C [2] was 94.7% and the viability, T/C [3] was 91.9%. It also gave a viability, T/C [4] of 71.8%, a viability, T/C [5] of 75.5% and a viability, T/C [6] of 72.2%. The viability, T/C [7] was 96.1%, the viability, T/C [8] was 94.9% and the viability, T/C [9] was 94%. The viability, T/C [10] was 80.9%, the viability, T/C [11] was 74.6% and the viability, T/C [12] was 70.6%. For the same compound, the viability, T/C [13] was 103%, the viability, T/C [14] was 99% and the viability, T/C [15] was 88%. It also gave a viability, T/C [16] of 80.6%, a viability, T/C [17] of 76.2% and a viability, T/C [18] of 77.1%. The viability, T/C [19] was 99.7%, the viability, T/C [20] was 99.4% and the viability, T/C [21] was 94.4%. The viability, T/C [22] was 88.3%, the viability, T/C [23] was 87.6% and the viability, T/C [24] was 74.5%. The viability, T/C [25] was 108%, the viability, T/C [26] was 91.6% and the viability, T/C [27] was 97.5%. For the same compound, the viability, T/C [28] was 81%, the viability, T/C [29] was 90.6% and the viability, T/C [30] was 75.8%. For the same compound, the viability, T/C [31] was 106%, the viability, T/C [32] was 97.9% and the viability, T/C [33] was 97.8%. For the same compound, the viability, T/C [34] was 86%, the viability, T/C [35] was 92.7% and the viability, T/C [36] was 79.8%.
`COc1cc2cc(C(=O)CCC(=O)O)sc2cc1OC` + Nc1ccc(C#CCN(C(=O)Cc2ncc(C(F)(F)F)cc2C(F)(F)F)c2ccc(F)cc2)nn1 was tested, and the pIC50 (second compound 0.0316 µM) was < 5.00, the pIC50 (second compound 0.1 µM) was < 5.00 and the pIC50 (second compound 0.316 µM) was < 5.00. For the same compound, the pIC50 (second compound 1 µM) was < 5.00, the pIC50 (second compound 3.16 µM) was < 5.00 and the pIC50 (second compound 10 µM) was < 5.00. For the same compound, the viability, T/C [1] was 102%, the viability, T/C [2] was 105% and the viability, T/C [3] was 95.4%. It also gave a viability, T/C [4] of 99.6%, a viability, T/C [5] of 105% and a viability, T/C [6] of 89%. For the same compound, the viability, T/C [7] was 102%, the viability, T/C [8] was 92.1% and the viability, T/C [9] was 97.9%. It also gave a viability, T/C [10] of 101%, a viability, T/C [11] of 99.4% and a viability, T/C [12] of 87.3%. For the same compound, the viability, T/C [13] was 102%, the viability, T/C [14] was 102% and the viability, T/C [15] was 105%. The viability, T/C [16] was 100%, the viability, T/C [17] was 93.8% and the viability, T/C [18] was 91.8%. The viability, T/C [19] was 102%, the viability, T/C [20] was 98.5% and the viability, T/C [21] was 100%. For the same compound, the viability, T/C [22] was 98.8%, the viability, T/C [23] was 104% and the viability, T/C [24] was 103%. It also gave a viability, T/C [25] of 103%, a viability, T/C [26] of 103% and a viability, T/C [27] of 104%. The viability, T/C [28] was 93.3%, the viability, T/C [29] was 103% and the viability, T/C [30] was 103%. The viability, T/C [31] was 109%, the viability, T/C [32] was 97.4% and the viability, T/C [33] was 108%. It also gave a viability, T/C [34] of 103%, a viability, T/C [35] of 114% and a viability, T/C [36] of 102%.
`COc1ccc([C@@H](O)c2cc(-c3ncnc4cc(N5CCOCC5)ccc34)c(F)cc2Cl)nn1` + Nc1ccc(C#CCN(C(=O)Cc2ncc(C(F)(F)F)cc2C(F)(F)F)c2ccc(F)cc2)nn1 was tested, and the pIC50 (second compound 0.0316 µM) was < 5.00, the pIC50 (second compound 0.1 µM) was < 5.00 and the pIC50 (second compound 0.316 µM) was < 5.00. For the same compound, the pIC50 (second compound 1 µM) was < 5.00, the pIC50 (second compound 3.16 µM) was < 5.00 and the pIC50 (second compound 10 µM) was < 5.00. The viability, T/C [1] was 116%, the viability, T/C [2] was 97.3% and the viability, T/C [3] was 93.7%. The viability, T/C [4] was 85.8%, the viability, T/C [5] was 75.8% and the viability, T/C [6] was 55.4%. The viability, T/C [7] was 106%, the viability, T/C [8] was 97.4% and the viability, T/C [9] was 98.7%. It also gave a viability, T/C [10] of 90.1%, a viability, T/C [11] of 86.2% and a viability, T/C [12] of 65.5%. For the same compound, the viability, T/C [13] was 100%, the viability, T/C [14] was 101% and the viability, T/C [15] was 102%. It also gave a viability, T/C [16] of 102%, a viability, T/C [17] of 75.3% and a viability, T/C [18] of 59.9%. For the same compound, the viability, T/C [19] was 102%, the viability, T/C [20] was 104% and the viability, T/C [21] was 98.1%. The viability, T/C [22] was 90.8%, the viability, T/C [23] was 93.2% and the viability, T/C [24] was 75%. It also gave a viability, T/C [25] of 107%, a viability, T/C [26] of 101% and a viability, T/C [27] of 99%. For the same compound, the viability, T/C [28] was 93.6%, the viability, T/C [29] was 84.1% and the viability, T/C [30] was 65.9%. For the same compound, the viability, T/C [31] was 104%, the viability, T/C [32] was 111% and the viability, T/C [33] was 102%. It also gave a viability, T/C [34] of 102%, a viability, T/C [35] of 82% and a viability, T/C [36] of 73.2%.

Source: PubChem BioAssay AID1963850 (Molecular Pharmacology Branch, DTP, NCI, 2024)
